Laboratory results taken from patent US7700593B2, “Imidazo- and triazolo-pyridine compounds and methods of use thereof” (Amgen Inc., priority 2006, dated 2010).

Legend:
p38α = p38α (Homo sapiens, UniProt Q16539); assay: p38 in-vitro HTRF enzyme assay; format: biochemical; conditions: IC50 value ranges
Method: p38 In-Vitro HTRF Enzyme Assay
The compounds of the invention can be tested for their respective affinities for the p38 protein using a conventional p38 in-vitro enzyme activity assay. For example, a P38-alpha HTRF assay may be used to measure the protein's in-vitro phosphorylation activity, and the data analyzed using time resolved fluorimetry techniques (FRET). A p38 HTRF assay is as follows. The kinase reaction buffer for p38α, p38β, p38δ and p38γ HTRF assays consists of 50 mM Tris-pH 7.5, 5 mM MgCl2, 0.1 mg/mL BSA, 100 μM Na3VO4 and 0.5 mM DTT. The HTRF detection buffer contains 100 mM HEPES-pH 7.5, 100 mM NaCl, 0.1% BSA, 0.05% Tween-20, and 10 mM EDTA. Each compound was dissolved in 100% DMSO and serially diluted (3 fold, 10 point) in a polypropylene 96-well microtiter plate (drug plate). The final starting concentration of the compound in the p38α and p38β enzymatic assays was about 1 μM. The final starting concentration of each compound in the p38δ and p38γ enzymatic assays was about 10 μM. The p38α, p38β, p38δ and p38γ kinase reactions were carried out in a polypropylene 96-well black round bottom assay plate in total volume of 30 μL kinase reaction buffer. Appropriate concentration of purified and activated enzyme (recombinant human) was mixed with indicated concentration of ATP and 100 nM GST-ATF2-Avitag, in the presence or absence (HI control) of each compound. In the absence of enzyme, the background was measured as LO control. HI controls and LO controls contained only DMSO. The reaction was allowed to incubate for 1 hour at RT. […] After 60 minutes incubation at room temperature, the assay plate was read in a Discovery Plate Reader. The wells were excited with coherent 320 nm light and the ratio of delayed ([…] post excitation) emissions at […] (native europium fluorescence) and 665 nm (europium fluorescence transferred to allophycocyanin—an index of substrate phosphorylation) was determined (Park et al, 1999). The resulting data was analyzed by taking the proportion of substrate phosphorylated in the kinase reaction in the presence of each individual compound and comparing it with that phosphorylated in the presence of DMSO vehicle alone (HI control). The data was calculated using the formula: % control (POC)=(compound−average LO)/(average HI−average LO)*100. Data (consisting of POC and inhibitor concentration in μM) was fitted to a 4-parameter equation (y=A+((B−A)/(1+((x/C)^D))), where A is the minimum y (POC) value, B is the maximum y (POC), C is the x (compound concentration) at the point of inflection and D is the slope factor, using a Levenburg-Marquardt non-linear regression algorithm. The inhibition constant (Ki) of the inhibitor was estimated from the IC50 (compound concentration at the point of inflection C) using the Cheng-Prussof equation: Ki=IC50/(1+S/Km), where S is the ATP substrate concentration, and Km is the Michaelis constant for ATP as determined experimentally. All results were expressed as the mean±the standard error of the mean. Data acquisition and non-linear regression algorithms were performed using Activity Base v5.2 and XLfit software v4.1 respectively. Additional assay information may be obtained in Park Y W, Cummings R T, Wu L, et al. Homogeneous Proximity Tyrosine Kinase Assays Scintillation Proximity Assay versus Homogeneous Time-Resolved Fluorescence. Analytical Biochemistry. 1999; 269: 94-104.

THP1 cells = assay: Lipopolysaccharide-activated THP1 cell TNF production assay; format: cell-based, human; conditions: Homo sapiens, THP-1; LPS-induced TNF-α production in THP1 cells
Method: Lipopolysaccharide-Activated THP1 Cell TNF Production Assay
THP1 cells are resuspended in fresh THP1 media (RPMI 1640, 10% heat-inactivated FBS, 1×PGS, 1×NEAA, plus 30 μM βME) at a concentration of 1E6/mL. One hundred microliters of cells per well are plated in a polystyrene 96-well tissue culture. One microgram per mL of bacterial LPS is prepared in THP1 media and is transferred to the wells. Test compounds are dissolved in 100% DMSO and are serially diluted 3-fold in a polypropylene 96-well microtiter plate (drug plate). HI control and LO control wells contain only DMSO. One microliter of test compound from the drug plate followed by 10 μL of LPS are transferred to the cell plate. The treated cells are induced to synthesize and secrete TNF-α at 37° C. for 3 h. Forty microliters of conditioned media are transferred to a 96-well polypropylene plate containing 110 μL of ECL buffer (50 mM Tris-HCl pH 8.0, 100 mM NaCl, 0.05% Tween 20, 0.05% NaN3 and 1% FBS) supplemented with 0.44 nM MAB610 monoclonal Ab (R&D Systems), 0.34 nM ruthenylated AF210NA polyclonal Ab (R&D Systems) and 44 μg/mL sheep anti-mouse M280 Dynabeads (Dynal). After a 2 h incubation at room temperature with shaking, the reaction is read on the ECL M8 Instrument (IGEN Inc.). A low voltage is applied to the ruthenylated TNF-α immune complexes, which in the presence of TPA (the active component in Origlo), results in a cyclical redox reaction generating light at […]. The amount of secreted TNF-α in the presence of compound compared with that in the presence of DMSO vehicle alone (HI control) is calculated using the formula: % control (POC)=(cpd−average LO)/(average HI−average LO)*100. Data (consisting of POC and inhibitor concentration in μM) is fitted to a 4-parameter equation (y=A+((B−A)/(1+((x/C)^D))), where A is the minimum y (POC) value, B is the maximum y (POC), C is the x (cpd concentration) at the point of inflection and D is the slope factor) using a Levenburg-Marquardt non-linear regression algorithm.

monocytes = assay: Lipopolysaccharide-activated monocyte TNF production assay (LPS induced TNF release); format: cell-based, human; conditions: Homo sapiens, Monocyte; LPS induced TNF release from monocytes; read-out: LPS induced TNFa
Method: Lipopolysaccharide-Activated Monocyte TNF Production Assay
Test compounds were evaluated in vitro for the ability to inhibit the production of TNF by monocytes activated with bacterial lipopolysaccharide (LPS). Fresh residual source leukocytes (a byproduct of plateletpheresis) were obtained from a local blood bank, and peripheral blood mononuclear cells (PBMCs) were isolated by density gradient centrifugation on Ficol-Paque Plus (Pharmacia). PBMCs were suspended at 2×10^6/mL in DMEM supplemented to contain 2% FCS, 10 mM, 0.3 mg/mL […], 100 U/mL penicillin G and […] streptomycin sulfate (complete media). Cells were plated into Falcon flat bottom, 96 well culture plates (200 μL/well) and cultured overnight at 37° C. and 6% CO2. Non-adherent cells were removed by washing with 200 μl/well of fresh medium. Wells containing adherent cells (˜70% monocytes) were replenished with 100 μL of fresh medium.
Preparation of Test Compound Stock Solutions
Test compounds were dissolved in […]. Compound stock solutions were prepared to an initial concentration of […]. Stocks were diluted initially to […] in complete media. Nine two-fold serial dilutions of each compound were then prepared in complete medium.
Treatment of Cells with Test Compounds and Activation of TNF Production with Lipopolysaccharide
One hundred microliters of each test compound dilution were added to microtiter wells containing adherent monocytes and 100 μL complete medium. Monocytes were cultured with test compounds for 60 min at which time 25 μL of complete medium containing 30 ng/mL lipopolysaccharide from E. coli K532 were added to each well. Cells were cultured an additional 4 hrs. Culture supernatants were then removed and TNF presence in the supernatants was quantified using an ELISA.
Flat bottom, 96 well Corning High Binding ELISA plates were coated overnight (4° C.) with 150 μL/well of 3 μg/mL murine anti-human TNF-α MAb (R&D Systems #MAB210). Wells were then blocked for 1 h at room temperature with 200 μL/well of CaCl2-free ELISA buffer supplemented to contain 20 mg/mL BSA (standard ELISA buffer: […], 150 mM NaCl, 2 mM CaCl2, 0.15 mM thimerosal, pH 7.4). Plates were washed and replenished with 100 μL of test supernatants (diluted 1:3) or standards. Standards consisted of eleven 1.5-fold serial dilutions from a stock of 1 ng/mL recombinant human TNF (R&D Systems). Plates were incubated at room temperature for 1 h on orbital shaker (300 rpm), washed and replenished with 100 μL/well of 0.5 μg/mL goat anti-human TNF-α (R&D systems #AB-210-NA) biotinylated at a 4:1 ratio. Plates were incubated for 40 min, washed and replenished with 100 μL/well of alkaline phosphatase-conjugated streptavidin (Jackson ImmunoResearch #016-050-084) at 0.02 μg/mL. Plates were incubated 30 min, washed and replenished with 200 μL/well of 1 mg/mL of p-nitrophenyl phosphate.
Standard curve data were fit to a second order polynomial and unknown TNF-α concentrations determined from their OD by solving this equation for concentration. TNF concentrations were then plotted vs. test compound concentration using a second order polynomial. This equation was then used to calculate the concentration of test compounds causing a 50% reduction in TNF production.

Chain of p38α (Q16539 whole entry): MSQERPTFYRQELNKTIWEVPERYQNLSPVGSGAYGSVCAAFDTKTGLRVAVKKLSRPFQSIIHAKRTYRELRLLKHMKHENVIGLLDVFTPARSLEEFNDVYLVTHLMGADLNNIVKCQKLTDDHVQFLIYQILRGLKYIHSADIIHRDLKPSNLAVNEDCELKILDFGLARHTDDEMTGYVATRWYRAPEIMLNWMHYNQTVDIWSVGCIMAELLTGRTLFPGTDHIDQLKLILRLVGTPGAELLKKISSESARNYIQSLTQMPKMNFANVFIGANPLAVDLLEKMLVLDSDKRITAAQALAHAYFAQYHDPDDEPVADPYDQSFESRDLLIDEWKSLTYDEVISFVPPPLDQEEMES

| Structure (SMILES) | IC50 (p38α) [nM] | IC50 (THP1 cells) [nM] | IC50 (monocytes) [nM] |
| --- | --- | --- | --- |
| Cc1ccc(C(=O)NC2CC2)cc1-c1ccn2c(-c3ccc(S(C)(=O)=O)cc3)nnc2c1 [Example 12, N-cyclopropyl-4-methyl-3-(3-(4-(methylsulfonyl)phenyl)[1,2,4]triazolo[4,3-a]pyridin-7-yl)benzamide] | 25 to 100 | 1000 to 5000 | 250 to 1000 |
| Cc1ccc(C(=O)NC2(C)CC2)cc1-c1ccn2c(-c3ccc(S(C)(=O)=O)cc3)nnc2c1 [Example 13, 4-methyl-N-(1-methylcyclopropyl)-3-(3-(4-(methylsulfonyl)phenyl)[1,2,4]triazolo[4,3-a]pyridin-7-yl)benzamide] | 25 to 100 | 250 to 1000 | 250 to 1000 |
| Cc1ccc(C(=O)Nc2ccnn2C)cc1-c1ccn2c(-c3ccc(S(C)(=O)=O)cc3)nnc2c1 [Example 14, 4-methyl-N-(1-methyl-1H-pyrazol-5-yl)-3-(3-(4-(methylsulfonyl)phenyl)[1,2,4]triazolo[4,3-a]pyridin-7-yl)benzamide] | 25 to 100 | 1000 to 5000 | 1000 to 5000 |
| Cc1ccc(C(=O)NC2(C)CC2)cc1-c1ccn2c(-c3ccc(F)cc3C)nnc2c1 [Example 16, 3-(3-(4-fluoro-2-methylphenyl)[1,2,4]triazolo[4,3-a]pyridin-7-yl)-4-methyl-N-(1-methylcyclopropyl)benzamide] | 25 to 100 | 100 to 250 | 100 to 250 |
| Cc1ccc(C(=O)NC2CC2)cc1-c1ccn2c(-c3cccc(S(C)(=O)=O)c3)nnc2c1 [Example 18, N-cyclopropyl-4-methyl-3-(3-(3-(methylsulfonyl)phenyl)[1,2,4]triazolo[4,3-a]pyridin-7-yl)benzamide] | 25 to 100 | 250 to 1000 | 100 to 250 |
| Cc1ccc(C(=O)Nc2ccnn2C)cc1-c1ccn2c(-c3ccc(F)cc3C)ncc2c1 [Example 23, 3-(3-(4-fluoro-2-methylphenyl)imidazo[1,5-a]pyridin-7-yl)-4-methyl-N-(1-methyl-1H-pyrazol-5-yl)benzamide] | < 25 | < 25 | 25 to 100 |
| Cc1ccc(C(N)=O)cc1-c1ccn2c(N)nnc2c1 [Example 24, 3-(3-amino[1,2,4]triazolo[4,3-a]pyridin-7-yl)-4-methylbenzamide] | 1000 to 5000 | 1000 to 5000 | 1000 to 5000 |
| Cc1ccc(C(=O)NC2CC2)cc1-c1ccn2c(CC(C)(C)C)nnc2c1 [Example 25, N-cyclopropyl-3-(3-(2,2-dimethylpropyl)[1,2,4]triazolo[4,3-a]pyridin-7-yl)-4-methylbenzamide] | < 25 | 25 to 100 | 25 to 100 |

The remaining lines, values ahead:

| IC50 (p38α) [nM] | IC50 (THP1 cells) [nM] | IC50 (monocytes) [nM] | Structure (SMILES) |
| --- | --- | --- | --- |
| < 25 | 25 to 100 | 25 to 100 | Cc1ccc(C(=O)NC2(C)CC2)cc1-c1ccn2c(-c3ccccc3Cl)nnc2c1 [Example 11, 3-(3-(2-chlorophenyl)[1,2,4]triazolo[4,3-a]pyridin-7-yl)-4-methyl-N-(1-methylcyclopropyl)benzamide] |
| < 25 | < 25 | 25 to 100 | Cc1ccc(C(=O)NC2CC2)cc1-c1ccn2c(-c3ccc(F)cc3C)nnc2c1 [Example 15, N-cyclopropyl-3-(3-(4-fluoro-2-methylphenyl)[1,2,4]triazolo[4,3-a]pyridin-7-yl)-4-methylbenzamide] |
| < 25 | < 25 | < 25 | Cc1ccc(C(=O)Nc2ccnn2C)cc1-c1ccn2c(-c3ccc(F)cc3C)nnc2c1 [Example 17, 3-(3-(4-fluoro-2-methylphenyl)[1,2,4]triazolo[4,3-a]pyridin-7-yl)-4-methyl-N-(1-methyl-1H-pyrazol-5-yl)benzamide] |
| < 25 | 25 to 100 | 25 to 100 | Cc1ccc(C(=O)NC2CC2)cc1-c1ccn2c(-c3ccc(F)cc3C)ncc2c1 [Example 22, N-cyclopropyl-3-(3-(4-fluoro-2-methylphenyl)imidazo[1,5-a]pyridin-7-yl)-4-methylbenzamide] |
